Literature values in US20020013320A1, “Use of growth hormone secretagogues to treat systemic lupus erythematosus and inflammatory bowel disease” (priority 2000, published 2002).
Where a SMILES comes first, the peptide text is derived from it. [ ]: non-standard residue; d: D form. d2Nal = N[C@H](Cc1ccc2ccccc2c1)C(=O)O; Aib = CC(C)(N)C(=O)O

What was measured:
[1] = adult female rats
[2] = oral treatment, obese young males
[3] = canines during remobilization

Molecule | bone mass [1] | markers of bone formation and bone resorption [2] | levels of serum insulin-like growth factor-1 [3] | size and strength of the quadriceps muscle [3]
CC(C)(N)C(=O)N[C@@H](Cc1c[nH]cn1)C(=O)N[C@H](Cc1ccc2ccccc2c1)C(=O)N[C@H](Cc1ccccc1)C(=O)N[C@@H](CCCCN)C(N)=O [Ipamorelin] (H-[Aib]H[d2Nal][dF]K-NH2) | have the capacity to increase bone mass | – | – | –
CC(C)(N)C(=O)N[C@H](COCc1ccccc1)C(=O)N1CCC2(CC1)CN(S(C)(=O)=O)c1ccccc12 [MK-0677] | – | increases | elevated | increased
GHRP-6 | have the capacity to increase bone mass | – | – | –
